Entries after “also recorded” stand apart in the source; their conditions may differ.
How the values were obtained:
[1] = Critical micelle concentration (CMC) using diphenylhexatriene (DPH) fluorescent stain; assay type: physicochemical; settings: aqueous solution
Method: A method of measuring the CMC is not particularly limited, but the CMC may be measured using methods well known in the related art. For example, the CMC may be measured by a fluorescence staining method using diphenylhexatriene (DPH).
(§1) Specifically, the critical micelle concentration (CMC) was measured using diphenylhexatriene (DPH) as a fluorescent stain, and the hydrodynamic radii (Rh) of the micelles formed by each preparation (1.0% by weight) were measured through a dynamic light scattering (DLS) experiment.

[2] = Hydrodynamic radius and size distribution of micelles by dynamic light scattering (DLS); assay type: physicochemical; settings: detergent 1.0% by weight
Method: A method of measuring the radius of the micelles is not particularly limited, but the radius of the micelles may be measured using methods well known in the related art. For example, the radius of the micelles may be measured through a dynamic light scattering (DLS) experiment.
as §1

[3] = biological target: T1, human β2 adrenergic receptor (β2AR) (Homo sapiens, UniProt P07550); assay: Structural stability of β2AR, [3H]-dihydroalprenolol ([3H]-DHA) binding; assay type: biochemical; settings: BTMs without CHS, DDM with CHS; for initial ligand-binding characteristics of β2AR ([3H]-DHA): CMC+0.2% by weight
T1 construct: made in house
T1 sequence (P07550 whole entry): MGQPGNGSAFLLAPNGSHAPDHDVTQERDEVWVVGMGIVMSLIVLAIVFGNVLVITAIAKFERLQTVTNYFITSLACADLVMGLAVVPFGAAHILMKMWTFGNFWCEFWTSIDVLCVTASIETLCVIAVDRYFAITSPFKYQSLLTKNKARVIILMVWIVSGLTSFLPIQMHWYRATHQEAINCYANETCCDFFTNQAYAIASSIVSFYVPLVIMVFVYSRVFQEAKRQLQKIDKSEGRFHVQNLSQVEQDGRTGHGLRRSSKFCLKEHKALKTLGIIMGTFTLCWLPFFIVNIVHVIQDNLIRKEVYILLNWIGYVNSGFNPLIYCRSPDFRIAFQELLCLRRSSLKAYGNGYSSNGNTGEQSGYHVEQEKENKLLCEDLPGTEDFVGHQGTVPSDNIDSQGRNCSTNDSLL
Method: An experiment for determining the structural stability of a human β2 adrenergic receptor (β2AR) and a G-protein-coupled receptor (GPCR) by BTMs was performed. That is, a receptor purified with DDM was diluted with a buffer solution containing only each of the BTMs without cholesteryl hemisuccinate (CHS) or a buffer solution containing DDM with CHS. The final compound concentration was CMC+0.2% by weight, and the ligand-binding characteristics of the receptor were determined through [^3H]-dihydroalprenolol ([^3H]-DHA) binding.
Specifically, a radioactive ligand binding test was performed using the following method. β2AR was purified with 0.1% DDM (D. M. Rosenbaum et al., Science, 2007, 318, 1266-1273.), and finally concentrated to approximately 10 mg/mL (approximately 200 μM). A master binding mixture containing 10 nM [^3H]-dihydroalprenolol (DHA) supplemented with 0.5 mg/mL BSA in each 0.2% amphiphilic compound (DDM or BTMs) was prepared using the β2AR purified with DDM. The ligand-binding characteristics of the receptor purified with the amphiphilic compound at 0.2 pmol was monitored at regular intervals while the receptor was incubated at room temperature for 3 days. The ligand-binding characteristics of the receptor were determined using a water-soluble radioactive ligand binding assay as will be described below. The receptor purified with DDM or each of the BTMs was incubated with 10 nM [^3H]-DHA at room temperature for 30 minutes. The mixture was loaded on a G-50 column, and flow-through fractions were collected using 1 mL of a binding buffer (20 mM HEPES (pH 7.5) supplemented with 0.5 mg/mL BSA and 20×CMC of each amphiphilic compound, 100 mM NaCl). Then, the G-50 column was filled with 15 mL of a scintillation fluid. Receptor-bound [^3H]-DHA was counted using a scintillation counter (Beckman). Non-specific binding of [^3H]-DHA was determined by adding 2 μM of alprenolol (Sigma) in the same binding reaction. The binding affinity of [^3H]-DHA was plotted on a column graph, and each experiment was performed in triplicate.

[4] = tested on: uric acid-xanthine/H+ symporter (UapA), UapAG411VΔ1-11 GFP fusion; assay: Thermal stability of UapA solubilized by detergent, fluorescence size exclusion chromatography (FSEC); set-up: species or system Aspergillus nidulans; settings: detergent 1.0% by weight; 40° C. for 10 minutes
Method: A UapA protein is a uric acid-xanthine/H^+ symporter in Aspergillus nidulans. An experiment for measuring structural stability of a uric acid-xanthine/H^+ symporter (UapA) by BTMs in an aqueous solution was performed. The structural stability of UapA was measured using fluorescence size exclusion chromatography (FSEC).
Specifically, UapAG411VΔ1-11 (hereinafter referred to as ‘UapA’) was expressed as a GFP fusion protein in a Saccharomyces cerevisiae FGY217 strain, and divided into a sample buffer (20 mM Tris (pH 7.5), 150 mM NaCl, 0.03% DDM, and 0.6 mM xanthine). This procedure was performed according to the method disclosed in the article by J. Leung et al. (Mol. Membr. Biol. 2013, 30, 32-42). Membranes containing UapA were re-suspended in PBS (10 mM imidazole pH 8.0, 150 mM NaCl, and 10% glycerol), and a concentration of proteins was measured. […] 100 μL aliquots were removed from the respective tubes, and fluorescence reading on each sample was performed before and after the aliquots were ultracentrifuged at 150,000 g for 10 minutes to remove insoluble matter. Water-soluble fractions remaining under each condition were subjected to fluorescence SEC (FSEC) using a Superose 6 column (GE Healthcare) equilibrated with a buffer containing a proper preparation (DDM or BTM).

[5] = biological target: T2, melibiose permease (MelB) (Salmonella typhimurium, UniProt P30878); assay: MelB extraction and thermostability, SDS-PAGE and Western Blotting of the dissolved protein; settings: 55° C., 90 minutes; detergent 1.5% by weight
T2 construct: made in house; host or cells: E. coli DW2
T2 sequence (P30878 whole entry): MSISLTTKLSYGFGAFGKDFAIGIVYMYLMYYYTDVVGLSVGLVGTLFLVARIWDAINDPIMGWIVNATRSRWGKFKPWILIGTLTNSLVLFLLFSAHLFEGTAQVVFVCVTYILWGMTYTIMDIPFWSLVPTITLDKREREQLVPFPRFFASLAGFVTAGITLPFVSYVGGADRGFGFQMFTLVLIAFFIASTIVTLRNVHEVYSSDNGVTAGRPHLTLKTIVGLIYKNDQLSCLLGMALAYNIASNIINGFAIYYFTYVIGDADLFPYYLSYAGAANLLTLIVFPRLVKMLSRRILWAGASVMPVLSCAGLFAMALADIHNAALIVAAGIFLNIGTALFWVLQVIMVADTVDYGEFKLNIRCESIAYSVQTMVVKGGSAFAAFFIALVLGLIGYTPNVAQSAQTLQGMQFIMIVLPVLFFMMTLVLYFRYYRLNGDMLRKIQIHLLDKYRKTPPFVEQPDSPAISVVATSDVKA
Method: The MelB protein was extracted from a membrane using BTM-C11s or DDM, and the amount and structure of the extracted protein were analyzed through SDS-PAGE and Western Blotting. A concentration of the amphiphilic compound used was 1.5% by weight, and the protein was extracted at four temperatures (0, 45, 55, and 65° C.), and incubated at the same temperature for 90 minutes. Thereafter, an amount of the protein remaining dissolved in an aqueous solution was measured to evaluate two types of performance: protein extraction efficiency and stabilization ability of the compound. The amount of the protein extracted and stabilized with each of the amphiphilic molecules is expressed as a relative value (%) of the entire amount of proteins contained in a membrane sample which is not treated with the amphiphilic molecules.
Specifically, Salmonella typhimurium melibiose permease (MelBSt) having a 10-His tag at the C-terminus thereof was expressed in E. coli DW2 cells (AmelB and AlacZY) using a plasmid pK95ΔAHB/WT MelBSt/CH10. Cell growth and membrane preparation were performed according to the method disclosed in the article by A. S. Ethayathulla et al. (Nat. Commun. 2014, 5, 3009). A protein assay was performed using a Micro BCA kit (Thermo Scientific, Rockford, Ill.). An effect of the isomers (A-BTM-C11, B-BTM-C11, and M-BTM-C11) of the BTM-C11s or DDM on the MelBSt stability was evaluated using the protocol disclosed in P. S. Chae et al. (Nat. Methods 2010, 7, 1003-1008). A membrane sample (having a final protein concentration of 10 mg/mL) containing MelBSt was incubated at four temperatures (0, 45, 55, and 65° C.) for 90 minutes in a solubilizing buffer (20 mM sodium phosphate, pH 7.5, 200 mM NaCl, 10% glycerol, and 20 mM melibiose) containing 1.5% (w/v) DDM or the BTM-C11 isomers. To remove insoluble matter, the sample was ultracentrifuged at 355,590 g at 4° C. for 45 minutes using a Beckman Optima™ MAX ultracentrifuge equipped with a TLA-100 rotor. The dissolved fraction was separated by 16% SDS-PAGE, and then immunoblotted with a Penta-His-HRP antibody (Qiagen, Germantown, Md.). The membrane fraction containing 20 μg of untreated proteins was used to represent the entire MelB, and the treated samples were loaded in each well at the same volume. MelBSt was measured by an ImageQuant LAS 4000 Biomolecular imager (GE Health Care Life Sciences) using a SuperSignal West Pico chemiluminescent substrate.

Compound	CMC [1]	CMC (% by weight) [1]	Rh (nm), hydrodynamic radius of micelles [2]	initial ligand-binding characteristics of β2AR ([3H]-DHA) [3]	UapA monodisperse peak in FSEC (extraction and structural stability) [4]	remaining ligand-binding ability of β2AR, % of initial ([3]; after 3 days of incubation at room temperature)	effect on the long-term stability of the receptor (β2AR) ([3]; room temperature, 3 days)	amount of MelB protein remaining dissolved in aqueous solution [5]
CCCCCCCCCCCOC[C@H](O[C@@H]1OC(CO)[C@@H](O[C@H]2OC(CO)[C@@H](O)C(O)C2O)C(O)C1O)[C@@H](COCCCCCCCCCCC)O[C@@H]1OC(CO)[C@@H](O[C@H]2OC(CO)[C@@H](O)C(O)C2O)C(O)C1O (stereo partly drawn) [M-BTM-C11]	~0.006 mM	~0.0006 % by weight	4.7 ± 0.27 nm	slight decrease in the ligand-binding characteristics	significant increase in the recovery of monodisperse peaks; also recorded: most excellent effect	approximately 70%	much more superior effect in maintaining the long-term stability of β2AR, compared to DDM	complete solubility
CCCCCCCCCCCOC[C@@H](O[C@@H]1OC(CO)[C@@H](O[C@H]2OC(CO)[C@@H](O)C(O)C2O)C(O)C1O)[C@@H](COCCCCCCCCCCC)O[C@@H]1OC(CO)[C@@H](O[C@H]2OC(CO)[C@@H](O)C(O)C2O)C(O)C1O (stereo partly drawn) [B-BTM-C11]	~0.008 mM	~0.0009 % by weight	3.5 ± 0.08 nm					
CCCCCCCCCCOC[C@H](O[C@@H]1OC(CO)[C@@H](O[C@H]2OC(CO)[C@@H](O)C(O)C2O)C(O)C1O)[C@@H](COCCCCCCCCCC)O[C@@H]1OC(CO)[C@@H](O[C@H]2OC(CO)[C@@H](O)C(O)C2O)C(O)C1O (stereo partly drawn) [M-BTM-C10]	~0.008 mM	~0.0009 % by weight	3.5 ± 0.07 nm					

Second part, led by results:

CMC [1]	CMC (% by weight) [1]	Rh (nm), hydrodynamic radius of micelles [2]	Compound	initial ligand-binding characteristics of β2AR ([3H]-DHA) [3]	UapA monodisperse peak in FSEC (extraction and structural stability) [4]	remaining ligand-binding ability of β2AR, % of initial ([3]; after 3 days of incubation at room temperature)	effect on the long-term stability of the receptor (β2AR) ([3]; room temperature, 3 days)	amount of MelB protein remaining dissolved in aqueous solution [5]
~0.007 mM	~0.0008 % by weight	3.5 ± 0.03 nm	CCCCCCCCCCCOC[C@H](O[C@@H]1OC(CO)[C@@H](O[C@H]2OC(CO)[C@@H](O)C(O)C2O)C(O)C1O)[C@H](COCCCCCCCCCCC)O[C@@H]1OC(CO)[C@@H](O[C@H]2OC(CO)[C@@H](O)C(O)C2O)C(O)C1O (stereo partly drawn) [A-BTM-C11]	slight decrease in the ligand-binding characteristics				
~0.011 mM	~0.0012 % by weight	3.2 ± 0.07 nm	CCCCCCCCCCOC[C@H](O[C@@H]1OC(CO)[C@@H](O[C@H]2OC(CO)[C@@H](O)C(O)C2O)C(O)C1O)[C@H](COCCCCCCCCCC)O[C@@H]1OC(CO)[C@@H](O[C@H]2OC(CO)[C@@H](O)C(O)C2O)C(O)C1O (stereo partly drawn) [A-BTM-C10]					
~0.017 mM	~0.0017 % by weight	3.2 ± 0.05 nm	CCCCCCCCCOC[C@H](O[C@@H]1OC(CO)[C@@H](O[C@H]2OC(CO)[C@@H](O)C(O)C2O)C(O)C1O)[C@@H](COCCCCCCCCC)O[C@@H]1OC(CO)[C@@H](O[C@H]2OC(CO)[C@@H](O)C(O)C2O)C(O)C1O (stereo partly drawn) [M-BTM-C9]					
~0.013 mM	~0.0014 % by weight	3.1 ± 0.07 nm	CCCCCCCCCCOC[C@@H](O[C@@H]1OC(CO)[C@@H](O[C@H]2OC(CO)[C@@H](O)C(O)C2O)C(O)C1O)[C@@H](COCCCCCCCCCC)O[C@@H]1OC(CO)[C@@H](O[C@H]2OC(CO)[C@@H](O)C(O)C2O)C(O)C1O (stereo partly drawn) [B-BTM-C10]					
~0.021 mM	~0.0022 % by weight	2.9 ± 0.04 nm	CCCCCCCCCOC[C@H](O[C@@H]1OC(CO)[C@@H](O[C@H]2OC(CO)[C@@H](O)C(O)C2O)C(O)C1O)[C@H](COCCCCCCCCC)O[C@@H]1OC(CO)[C@@H](O[C@H]2OC(CO)[C@@H](O)C(O)C2O)C(O)C1O (stereo partly drawn) [A-BTM-C9]					

Reference: US11198704B2, “Butane-tetraol-based amphiphiles and uses thereof” (Industry-University Cooperation Foundation Hanyang …, priority 2016, dated 2021)
